Results from the NIST ThermoML archive (doi:10.1016/j.jct.2015.05.002).

Test: mn = molality of the nth substance listed, in mol/kg
Conditions: 101.3 kPa, Liquid; for speed of sound: Frequency=3 MHz, Sing-around technique in a fixed-path interferometer; for mass density: Vibrating tube method

O=C[O-].[NH3+]CCCO [3-hydroxypropylammonium formate] + O
Conditions | mass density, m1 = 0.1 [kg/m3] | mass density, m1 = 0.21 [kg/m3] | mass density, m1 = 0.3 [kg/m3] | mass density, m1 = 0.42 [kg/m3] | speed of sound, m1 = 0.1 [m/s] | speed of sound, m1 = 0.21 [m/s] | speed of sound, m1 = 0.3 [m/s] | speed of sound, m1 = 0.42 [m/s]
293.15 K | 999.816 | 1001.61 | 1003.08 | 1005.09 | 1489.6 | 1496.4 | 1502.6 | 1510.7
298.15 K | – | 1000.35 | – | 1003.64 | – | 1508.3 | – | 1520
303.15 K | – | 998.914 | – | 1002.15 | – | 1519.6 | – | 1530.5
308.15 K | – | 997.259 | – | 1000.45 | – | 1529.4 | – | 1540.3
313.15 K | – | 995.402 | – | 998.562 | – | 1538 | – | 1547.9
318.15 K | – | 993.291 | – | 996.504 | – | 1545 | – | 1554.3
